Source: the supplement of paper PMC5662764
± gives the standard deviation of the averaged measurements.

Columns and labels:
Assay in all cases: normalised growth rate inhibition (GR value) relative to DMSO control (GR (1 = untreated growth, 0 = cytostasis, <0 = cytotoxic)); higher = less growth inhibition
Conditions in all cases: 72 h
BT20 = tested on: BT20
Description: (§1)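 Breast cancer cell lines (BT-20, Hs 578T, MCF 10A, MCF7, MDA-MB-231, SK-BR-3) were plated in 384-well plates and treated 24 h later with drugs at six concentrations (0.04-10 µM). Viable cells were counted by Hoechst/dead-cell-stain imaging at 0 and 72 h. Counts were normalised to DMSO controls on the same plate to give the relative cell count and the growth-rate inhibition (GR) value; technical plate triplicates were averaged for each biological replicate.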

HS578T = tested on: HS578T
Description: as §1

MCF10A = tested on: MCF10A
Description: as §1

MCF7 = tested on: MCF7
Description: as §1

MDAMB231 = tested on: MDAMB231
Description: as §1

SKBR3 = tested on: SKBR3
Description: as §1

| SMILES | normalised growth rate inhibition (BT20; 0.04 µM) | normalised growth rate inhibition (BT20; 0.12 µM) | normalised growth rate inhibition (BT20; 0.37 µM) | normalised growth rate inhibition (BT20; 1.11 µM) | normalised growth rate inhibition (BT20; 3.33 µM) | normalised growth rate inhibition (BT20; 10 µM) | normalised growth rate inhibition (HS578T; 0.04 µM) | normalised growth rate inhibition (HS578T; 0.12 µM) | normalised growth rate inhibition (HS578T; 0.37 µM) | normalised growth rate inhibition (HS578T; 1.11 µM) | normalised growth rate inhibition (HS578T; 3.33 µM) | normalised growth rate inhibition (HS578T; 10 µM) | normalised growth rate inhibition (MCF10A; 0.04 µM) | normalised growth rate inhibition (MCF10A; 0.12 µM) | normalised growth rate inhibition (MCF10A; 0.37 µM) | normalised growth rate inhibition (MCF10A; 1.11 µM) | normalised growth rate inhibition (MCF10A; 3.33 µM) | normalised growth rate inhibition (MCF10A; 10 µM) | normalised growth rate inhibition (MCF7; 0.04 µM) | normalised growth rate inhibition (MCF7; 0.12 µM) | normalised growth rate inhibition (MCF7; 0.37 µM) | normalised growth rate inhibition (MCF7; 1.11 µM) | normalised growth rate inhibition (MCF7; 3.33 µM) | normalised growth rate inhibition (MCF7; 10 µM) | normalised growth rate inhibition (MDAMB231; 0.04 µM) | normalised growth rate inhibition (MDAMB231; 0.12 µM) | normalised growth rate inhibition (MDAMB231; 0.37 µM) | normalised growth rate inhibition (MDAMB231; 1.11 µM) | normalised growth rate inhibition (MDAMB231; 3.33 µM) | normalised growth rate inhibition (MDAMB231; 10 µM) | normalised growth rate inhibition (SKBR3; 0.04 µM) | normalised growth rate inhibition (SKBR3; 0.12 µM) | normalised growth rate inhibition (SKBR3; 0.37 µM) | normalised growth rate inhibition (SKBR3; 1.11 µM) | normalised growth rate inhibition (SKBR3; 3.33 µM) | normalised growth rate inhibition (SKBR3; 10 µM) |
| --- | --- | --- | --- | --- | --- | --- | --- | --- | --- | --- | --- | --- | --- | --- | --- | --- | --- | --- | --- | --- | --- | --- | --- | --- | --- | --- | --- | --- | --- | --- | --- | --- | --- | --- | --- | --- |
| COc1cc(C(=O)NC2CCN(C)CC2)ccc1Nc1ncc2c(n1)N(C1CCCC1)CCC(=O)N2C(C)C | 0.783 ± 0.068 | 0.948 ± 0.1 | 0.933 ± 0.14 | 0.936 ± 0.11 | 0.888 ± 0.1 | 0.734 ± 0.15 | 0.972 ± 0.024 | 0.964 ± 0.045 | 0.93 ± 0.03 | 0.917 ± 0.0095 | 0.8447 ± 0.0079 | 0.275 ± 0.079 | 0.975 ± 0.04 | 0.979 ± 0.045 | 0.984 ± 0.019 | 0.972 ± 0.024 | 0.948 ± 0.029 | 0.758 ± 0.086 | 0.764 ± 0.077 | 0.84 ± 0.053 | 0.858 ± 0.07 | 0.807 ± 0.02 | 0.758 ± 0.065 | 0.298 ± 0.024 | 0.765 ± 0.047 | 0.884 ± 0.069 | 0.86 ± 0.068 | 0.834 ± 0.077 | 0.767 ± 0.093 | 0.308 ± 0.08 | 0.601 ± 0.093 | 0.755 ± 0.053 | 0.775 ± 0.079 | 0.758 ± 0.088 | 0.787 ± 0.082 | 0.511 ± 0.17 |
| COc1cc2ncn(-c3cc(OCc4ccccc4C(F)(F)F)c(C(N)=O)s3)c2cc1OC | 0.853 ± 0.061 | 0.614 ± 0.18 | 0.331 ± 0.27 | -0.00404 ± 0.12 | -0.126 ± 0.06 | -0.0325 ± 0.31 | 0.959 ± 0.075 | 0.603 ± 0.19 | 0.0393 ± 0.039 | -0.137 ± 0.087 | -0.145 ± 0.12 | 0.00336 ± 0.2 | 0.96 ± 0.027 | 0.817 ± 0.083 | 0.412 ± 0.13 | 0.0464 ± 0.034 | -0.0733 ± 0.13 | -0.101 ± 0.17 | 0.68 ± 0.15 | 0.279 ± 0.18 | 0.14 ± 0.023 | 0.072 ± 0.019 | 0.0415 ± 0.007 | 0.167 ± 0.099 | 0.892 ± 0.064 | 0.736 ± 0.11 | 0.404 ± 0.12 | 0.0556 ± 0.12 | -0.0347 ± 0.12 | 0.0238 ± 0.14 | 0.847 ± 0.018 | 0.463 ± 0.19 | -0.0831 ± 0.12 | -0.157 ± 0.18 | -0.213 ± 0.17 | 0.0233 ± 0.42 |
| COc1cc2ncnc(-n3nc(-c4ccccn4)nc3N)c2cc1OC | 1.07 ± 0.0067 | 1.03 ± 0.032 | 1.01 ± 0.036 | 1.02 ± 0.014 | 0.954 ± 0.047 | 0.588 ± 0.22 | 1.035 ± 0.0072 | 1.04 ± 0.021 | 1.05 ± 0.033 | 1.02 ± 0.053 | 0.978 ± 0.083 | 0.686 ± 0.15 | 1.018 ± 0.01 | 1.01 ± 0.014 | 1.008 ± 0.0099 | 0.994 ± 0.011 | 0.972 ± 0.018 | 0.729 ± 0.26 | 1.09 ± 0.051 | 1.04 ± 0.045 | 1.05 ± 0.083 | 1.01 ± 0.1 | 0.918 ± 0.14 | 0.499 ± 0.41 | 1.05 ± 0.057 | 1.02 ± 0.058 | 0.785 ± 0.4 | 0.938 ± 0.041 | 0.903 ± 0.1 | 0.534 ± 0.25 | 1.16 ± 0.032 | 1.05 ± 0.033 | 1.04 ± 0.069 | 0.95 ± 0.13 | 0.871 ± 0.17 | 0.479 ± 0.44 |
| C[C@@H](N)c1ccc(C(=O)Nc2ccnc3[nH]ccc23)cc1 | 0.994 ± 0.068 | 1.01 ± 0.098 | 0.962 ± 0.084 | 0.895 ± 0.073 | 0.802 ± 0.09 | 0.296 ± 0.17 | 0.884 ± 0.015 | 0.821 ± 0.059 | 0.802 ± 0.03 | 0.757 ± 0.041 | 0.626 ± 0.054 | 0.0283 ± 0.12 | 0.9685 ± 0.0076 | 0.877 ± 0.069 | 0.888 ± 0.038 | 0.864 ± 0.047 | 0.805 ± 0.089 | 0.336 ± 0.18 | 1.06 ± 0.049 | 1.04 ± 0.043 | 1 ± 0.039 | 0.905 ± 0.11 | 0.63 ± 0.19 | -0.243 ± 0.13 | 0.873 ± 0.12 | 0.849 ± 0.1 | 0.777 ± 0.11 | 0.703 ± 0.086 | 0.586 ± 0.062 | -0.303 ± 0.14 | 0.839 ± 0.19 | 0.836 ± 0.19 | 0.782 ± 0.14 | 0.667 ± 0.18 | 0.522 ± 0.18 | -0.122 ± 0.18 |
| Cc1cnc(-c2cnc(NCCNc3ccc(C#N)cn3)nc2-c2ccc(Cl)cc2Cl)[nH]1 | 0.915 ± 0.11 | 0.932 ± 0.082 | 0.959 ± 0.087 | 1 ± 0.093 | 1.01 ± 0.069 | 0.875 ± 0.16 | 0.97 ± 0.014 | 0.9636 ± 0.0048 | 0.962 ± 0.018 | 0.911 ± 0.059 | 0.907 ± 0.018 | 0.525 ± 0.14 | 1.01 ± 0.032 | 1.01 ± 0.041 | 0.997 ± 0.07 | 0.952 ± 0.12 | 0.9 ± 0.12 | 0.799 ± 0.13 | 0.844 ± 0.082 | 0.786 ± 0.085 | 0.776 ± 0.095 | 0.586 ± 0.16 | 0.585 ± 0.1 | 0.222 ± 0.061 | 0.895 ± 0.041 | 0.823 ± 0.039 | 0.831 ± 0.021 | 0.827 ± 0.061 | 0.831 ± 0.024 | 0.762 ± 0.035 | 0.731 ± 0.12 | 0.725 ± 0.17 | 0.786 ± 0.16 | 0.749 ± 0.17 | 0.753 ± 0.17 | 0.465 ± 0.2 |
| OCCCNc1cc(-c2ccnc(Nc3cccc(Cl)c3)n2)ccn1 | 0.32 ± 0.6 | -0.203 ± 0.17 | -0.291 ± 0.18 | -0.323 ± 0.18 | -0.37 ± 0.19 | -0.43 ± 0.17 | 0.343 ± 0.56 | -0.0634 ± 0.17 | -0.144 ± 0.099 | -0.162 ± 0.09 | -0.188 ± 0.14 | -0.228 ± 0.13 | 0.263 ± 0.55 | -0.205 ± 0.21 | -0.228 ± 0.22 | -0.24 ± 0.21 | -0.242 ± 0.21 | -0.231 ± 0.16 | 0.312 ± 0.68 | -0.264 ± 0.073 | -0.315 ± 0.074 | -0.332 ± 0.09 | -0.363 ± 0.09 | -0.429 ± 0.097 | 0.257 ± 0.49 | -0.139 ± 0.17 | -0.226 ± 0.15 | -0.295 ± 0.15 | -0.318 ± 0.15 | -0.319 ± 0.13 | 0.398 ± 0.76 | 0.11 ± 0.49 | -0.227 ± 0.18 | -0.278 ± 0.16 | -0.344 ± 0.15 | -0.414 ± 0.18 |
| O=c1[nH]c2ccccc2n1C1CCN(Cc2ccc(-c3[nH]c4cc5ncnc5cc4nc3-c3ccccc3)cc2)CC1 [AKT-inhibitor-1-2] | 0.831 ± 0.027 | 0.851 ± 0.026 | 0.921 ± 0.023 | 0.849 ± 0.015 | 0.872 ± 0.026 | 0.291 ± 0.052 | 0.9753 ± 0.0043 | 0.9556 ± 0.0094 | 0.933 ± 0.0086 | 0.857 ± 0.029 | 0.875 ± 0.024 | 0.388 ± 0.099 | 0.994 ± 0.01 | 0.979 ± 0.01 | 0.9721 ± 0.0092 | 0.922 ± 0.048 | 0.945 ± 0.047 | 0.605 ± 0.15 | 0.749 ± 0.023 | 0.741 ± 0.034 | 0.701 ± 0.1 | 0.471 ± 0.066 | 0.436 ± 0.11 | -0.0151 ± 0.17 | 0.874 ± 0.091 | 0.889 ± 0.086 | 0.918 ± 0.046 | 0.835 ± 0.083 | 0.888 ± 0.023 | 0.56 ± 0.11 | 0.675 ± 0.14 | 0.759 ± 0.051 | 0.766 ± 0.021 | 0.587 ± 0.091 | 0.599 ± 0.027 | 0.299 ± 0.043 |
| O=C(NC1CCNCC1)c1n[nH]cc1NC(=O)c1c(Cl)cccc1Cl [AT-7519] | 0.891 ± 0.088 | 0.695 ± 0.31 | 0.207 ± 0.43 | -0.207 ± 0.12 | -0.361 ± 0.21 | -0.422 ± 0.18 | 0.899 ± 0.1 | 0.564 ± 0.38 | -0.102 ± 0.11 | -0.14 ± 0.099 | -0.242 ± 0.12 | -0.295 ± 0.11 | 0.969 ± 0.028 | 0.88 ± 0.071 | 0.222 ± 0.39 | -0.156 ± 0.23 | -0.256 ± 0.28 | -0.296 ± 0.25 | 0.69 ± 0.41 | 0.0423 ± 0.33 | -0.267 ± 0.063 | -0.302 ± 0.099 | -0.33 ± 0.14 | -0.404 ± 0.13 | 0.732 ± 0.19 | 0.291 ± 0.38 | -0.171 ± 0.22 | -0.291 ± 0.22 | -0.355 ± 0.2 | -0.388 ± 0.19 | 0.717 ± 0.24 | 0.14 ± 0.11 | -0.104 ± 0.074 | -0.284 ± 0.15 | -0.41 ± 0.18 | -0.523 ± 0.16 |
